Reference: PubChem BioAssay (NCI)
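Cultured in 96-well plates, cells were exposed to test compound for 48 hours across five concentrations. GI50 = concentration required for 50% inhibition of growth. TGI is the concentration that stops growth completely.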

Columns and labels:
Experiment in all cases: inhibition of tumour cell growth, NCI panel, 48 h
786-0 renal = system: 786-0 renal
A498 renal = system: A498 renal
A549 NSCLC = system: A549 NSCLC
ACHN renal = system: ACHN renal
BT-549 breast = system: BT-549 breast
CAKI-1 renal = system: CAKI-1 renal
CCRF-CEM leukemia = system: CCRF-CEM leukemia
COLO 205 colon = system: COLO 205 colon
DU-145 prostate = system: DU-145 prostate
EKVX NSCLC = system: EKVX NSCLC
HCC-2998 colon = system: HCC-2998 colon
HCT-116 colon = system: HCT-116 colon
HCT-15 colon = system: HCT-15 colon
HL-60(TB) leukemia = system: HL-60(TB) leukemia
HOP-62 NSCLC = system: HOP-62 NSCLC
HOP-92 NSCLC = system: HOP-92 NSCLC
HS 578T breast = system: HS 578T breast
HT29 colon = system: HT29 colon
IGROV1 ovarian = system: IGROV1 ovarian
K-562 leukemia = system: K-562 leukemia
KM12 colon = system: KM12 colon
LOX IMVI melanoma = system: LOX IMVI melanoma
M14 melanoma = system: M14 melanoma
MALME-3M melanoma = system: MALME-3M melanoma
MCF7 breast = system: MCF7 breast
MDA-MB-231 breast = system: MDA-MB-231 breast
MDA-MB-435 = system: MDA-MB-435
MOLT-4 leukemia = system: MOLT-4 leukemia
NCI-H226 lung = system: NCI-H226 lung
NCI-H23 lung = system: NCI-H23 lung
NCI-H460 lung = system: NCI-H460 lung
NCI-H522 lung = system: NCI-H522 lung
NCI/ADR-RES ovarian = system: NCI/ADR-RES ovarian
OVCAR-3 ovarian = system: OVCAR-3 ovarian
OVCAR-4 ovarian = system: OVCAR-4 ovarian
OVCAR-5 ovarian = system: OVCAR-5 ovarian
OVCAR-8 ovarian = system: OVCAR-8 ovarian
PC-3 prostate = system: PC-3 prostate
RPMI-8226 leukemia = system: RPMI-8226 leukemia
RXF 393 renal = system: RXF 393 renal
SF-268 CNS = system: SF-268 CNS
SF-295 CNS = system: SF-295 CNS
SF-539 CNS = system: SF-539 CNS
SK-MEL-28 melanoma = system: SK-MEL-28 melanoma
SK-MEL-5 melanoma = system: SK-MEL-5 melanoma
SK-OV-3 ovarian = system: SK-OV-3 ovarian
SN12C renal = system: SN12C renal
SNB-19 CNS = system: SNB-19 CNS
SNB-75 CNS = system: SNB-75 CNS
SW-620 colon = system: SW-620 colon
T-47D breast = system: T-47D breast
TK-10 renal = system: TK-10 renal
U251 CNS = system: U251 CNS
UACC-257 melanoma = system: UACC-257 melanoma
UACC-62 melanoma = system: UACC-62 melanoma
UO-31 renal = system: UO-31 renal

CN1C(=O)C23CC4(C56CC78SSC(CO)(C(=O)N7C5Nc5ccccc56)N(C)C8=O)c5ccccc5NC4N2C(=O)C1(CO)SS3 (configuration not stated)
GI50 (786-0 renal): 78.6 nM
TGI (786-0 renal): 172 nM
GI50 (A498 renal): 74.8 nM
TGI (A498 renal): 155 nM
GI50 (A549 NSCLC): 48 nM
TGI (A549 NSCLC): 283 nM
GI50 (ACHN renal): 71.5 nM
TGI (ACHN renal): 443 nM
GI50 (BT-549 breast): 106 nM
TGI (BT-549 breast): 347 nM
GI50 (CAKI-1 renal): 56.1 nM
TGI (CAKI-1 renal): 290 nM
GI50 (CCRF-CEM leukemia): 21.9 nM
TGI (CCRF-CEM leukemia): 3040 nM
GI50 (COLO 205 colon): 19.5 nM
TGI (COLO 205 colon): 76 nM
GI50 (DU-145 prostate): 29.6 nM
TGI (DU-145 prostate): 195 nM
GI50 (EKVX NSCLC): 89.2 nM
TGI (EKVX NSCLC): 526 nM
GI50 (HCC-2998 colon): 46 nM
TGI (HCC-2998 colon): 132 nM
GI50 (HCT-116 colon): 32.9 nM
TGI (HCT-116 colon): 313 nM
GI50 (HCT-15 colon): 35.3 nM
TGI (HCT-15 colon): 411 nM
GI50 (HL-60(TB) leukemia): 85.3 nM
TGI (HL-60(TB) leukemia): 50000 nM
GI50 (HOP-62 NSCLC): 124 nM
TGI (HOP-62 NSCLC): 368 nM
GI50 (HOP-92 NSCLC): 103 nM
TGI (HOP-92 NSCLC): 461 nM
GI50 (HS 578T breast): 52.9 nM
TGI (HS 578T breast): 191 nM
GI50 (HT29 colon): 17.6 nM
TGI (HT29 colon): 162 nM
GI50 (IGROV1 ovarian): 98.7 nM
TGI (IGROV1 ovarian): 279 nM
GI50 (K-562 leukemia): 524 nM
TGI (K-562 leukemia): 3640 nM
GI50 (KM12 colon): 54.4 nM
TGI (KM12 colon): 220 nM
GI50 (LOX IMVI melanoma): 52.1 nM
TGI (LOX IMVI melanoma): 243 nM
GI50 (M14 melanoma): 71.7 nM
TGI (M14 melanoma): 205 nM
GI50 (MALME-3M melanoma): 17.7 nM
TGI (MALME-3M melanoma): 74.5 nM
GI50 (MCF7 breast): 14.5 nM
TGI (MCF7 breast): 122 nM
GI50 (MDA-MB-231 breast): 130 nM
TGI (MDA-MB-231 breast): 653 nM
GI50 (MDA-MB-435): 68.5 nM
TGI (MDA-MB-435): 146 nM
GI50 (MOLT-4 leukemia): 34.3 nM
TGI (MOLT-4 leukemia): 3500 nM
GI50 (NCI-H226 lung): 130 nM
TGI (NCI-H226 lung): 359 nM
GI50 (NCI-H23 lung): < 31.5 nM
TGI (NCI-H23 lung): 76.4 nM
GI50 (NCI-H460 lung): 52.3 nM
TGI (NCI-H460 lung): 191 nM
GI50 (NCI-H522 lung): 115 nM
TGI (NCI-H522 lung): 329 nM
GI50 (NCI/ADR-RES ovarian): 48.2 nM
TGI (NCI/ADR-RES ovarian): 189 nM
GI50 (OVCAR-3 ovarian): 50.7 nM
TGI (OVCAR-3 ovarian): 218 nM
GI50 (OVCAR-4 ovarian): 57.6 nM
TGI (OVCAR-4 ovarian): 237 nM
GI50 (OVCAR-5 ovarian): 81.3 nM
TGI (OVCAR-5 ovarian): 294 nM
GI50 (OVCAR-8 ovarian): 23 nM
TGI (OVCAR-8 ovarian): 185 nM
GI50 (PC-3 prostate): 38.8 nM
TGI (PC-3 prostate): 537 nM
GI50 (RPMI-8226 leukemia): 56.3 nM
TGI (RPMI-8226 leukemia): 3160 nM
GI50 (RXF 393 renal): 12.9 nM
TGI (RXF 393 renal): 42 nM
GI50 (SF-268 CNS): 80.7 nM
TGI (SF-268 CNS): 351 nM
GI50 (SF-295 CNS): 49.7 nM
TGI (SF-295 CNS): 135 nM
GI50 (SF-539 CNS): 29.1 nM
TGI (SF-539 CNS): 64.9 nM
GI50 (SK-MEL-28 melanoma): 23.5 nM
TGI (SK-MEL-28 melanoma): 69.5 nM
GI50 (SK-MEL-5 melanoma): 39.3 nM
TGI (SK-MEL-5 melanoma): 112 nM
GI50 (SK-OV-3 ovarian): 103 nM
TGI (SK-OV-3 ovarian): 291 nM
GI50 (SN12C renal): 124 nM
TGI (SN12C renal): 673 nM
GI50 (SNB-19 CNS): 192 nM
TGI (SNB-19 CNS): 643 nM
GI50 (SNB-75 CNS): 99.3 nM
TGI (SNB-75 CNS): 289 nM
GI50 (SW-620 colon): 37.2 nM
TGI (SW-620 colon): 167 nM
GI50 (T-47D breast): 21.3 nM
TGI (T-47D breast): 135 nM
GI50 (TK-10 renal): 119 nM
TGI (TK-10 renal): 359 nM
GI50 (U251 CNS): 46.4 nM
TGI (U251 CNS): 193 nM
GI50 (UACC-257 melanoma): 37.2 nM
TGI (UACC-257 melanoma): 113 nM
GI50 (UACC-62 melanoma): 62.2 nM
TGI (UACC-62 melanoma): 153 nM
GI50 (UO-31 renal): 111 nM
TGI (UO-31 renal): 342 nM
